This passage reports CC50 results from paper PMC6072100, “Exploring the links between peptoid antibacterial activity and toxicity” (MedChemComm, 2017).

Square brackets hold non-standard residues; d marks the D form. Peptide text beside a SMILES is read from it. Gly(Nα-4-Cl-benzyl) = O=C(O)CNCc1ccc(Cl)cc1; N(4-F-Bzl)Gly = O=C(O)CNCc1ccc(F)cc1; Gly(N-(CH2)6NH2) = NCCCCCCNCC(=O)O; Gly(N-2-aminoethyl) = NCCNCC(=O)O; Nspe = C[C@H](NCC(=O)O)c1ccccc1; Nlys = NCCCCNCC(=O)O

Series [1] in a line: Cytotoxicity assay with HepG2 (alamarBlue). Type of series: cell-based, human. To be noted: human, HepG2 cells. The method, then:
The activity of our peptoid library was assessed against both bacterial and mammalian cells to gain a broader understanding of the factors that lead to effective and selective antimicrobial peptoids. We screened for broad-spectrum antibacterial activity against Gram-negative (Escherichia coli and Pseudomonas aeruginosa) and Gram-positive (Staphylococcus aureus and S. epidermidis) bacteria. The toxicity of the library was also assessed against two mammalian cell lines; HaCaT spontaneously transformed aneuploid keratinocytes were employed to model toxicity against human skin cells and HepG2, a cell line derived from a human liver carcinoma, were used as a study on polarised human hepatocytes. Detailed methods for these assays can be found in the ESI. ^‡ […]
Please note – ED50, the median effective dose, was defined as the dose that kills 50% of cells.
Cytotoxicity analyses were performed in 96-well plates (Costar, Fisher Scientific) using alamarBlue® (Invitrogen) for cell viability detection using a modified protocol as described previously. HepG2 or HaCaT cells were subcultured at 37 °C, 5% CO2 in DMEM high glucose supplemented with heat-inactivated foetal bovine sera (FBS, 10%; Biosera Ltd) and penicillin/streptomycin (P/S, 1%). Cells were counted using a Neubauer Improved Haemocytometer. HepG2 cells were seeded 1 day prior to treatment in 96 well plates at a concentration of 2 × 10^5 cells per mL in 100 μL of medium (2 × 10^4 cells per well). Then cells were pre-incubated with the compounds in triplicate in a dilution series in triplicate from 2–100 μM (5 mM stock solutions in DMSO diluted from 100 μM to 3 μM; untreated cells with DMSO as a negative control) in 50 μl of the media for 1 hour. Afterwards, 40 μL were removed from each well before the addition of 90 μL of the media, followed by incubation for 24 hours at 37 °C, 5% CO2. Then, 10 μL of alamarBlue® (Invitrogen) was added to each well before a 2 hour incubation prior to assessing cell viability using a fluorescent plate reader (Biotek; Ex 560 nm/Em 600 nm). All data were measured in triplicate on a minimum of two occasions to ensure a robust data set was collected. The ED50 values were calculated from the dose response results achieved from the serial dilutions.
Cytotoxicity assay with HepG2
Cytotoxicity analyses were performed in 96-well plates (Costar, Fisher Scientific) using alamarBlue® (Invitrogen) for cell viability detection using a modified protocol as previously described. The HepG2 cells were grown at 37 °C, 5% CO2 in DMEM high glucose supplemented with heat-inactivated foetal bovine sera (FBS, 10%; Biosera Ltd) and penicillin/streptomycin (P/S, 1%). Cells were counted using a Neubauer Improved Haemocytometer. HepG2 cells were seeded 1 day prior to treatment in 96 well plates at a concentration of 2x10^5 cells/mL in 100 µL of medium (2x10^4 cells/well). Then cells were pre-incubated with the compounds in triplicate (5 mM stock solutions in DMSO diluted from 100 µM to 3 µM; untreated cells with DMSO as a negative control) in 50 µl of the media for 1 hour.
Afterwards, 40 µL were removed from each well before the addition of 90 µL of the media, followed by incubation for 24 hours at 37 °C, 5% CO2. Then, 10 µL of alamarBlue® (Invitrogen) was added to each well before a 2 hour incubation prior to assessing cell viability using a fluorescent plate reader (Biotek; Ex 560 nm / Em 600 nm). All data was measured in triplicate on a minimum of two occasions to ensure a robust data set was collected. The ED50 values were calculated from the dose response results achieved from the serial dilutions. […]
5% CO2 in DMEM high glucose supplemented with heat-inactivated foetal bovine sera (FBS, 10%; Biosera Ltd) and penicillin/streptomycin (P/S, 1%). Cells were counted using a Neubauer […]
Empty wells were filled with 100 µL PBS. After 24 hours, cells were incubated with the compounds in a dilution series in triplicate from 2 – 100 µM (5 mM stock solutions in DMSO […]
Background: Resazurin is reduced to fluorescent resorufin, in cell work by metabolically active cells.

The nature of series [2]: Skin cell toxicity assay with HaCaT (alamarBlue). In kind it is cell-based, human. To be noted: human, HaCaT cells (keratinocytes). An outline of the steps: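 HaCaT cells seeded at 2x10^4 per well 24 hours before 1-hour exposure to a 2–100 µM triplicate dilution series in DMEM high glucose with 10% FBS at 37 °C, 5% CO2. Viability assessed with alamarBlue; ED50 defined as dose killing 50% of cells, derived from dose-response data.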

Setting [3] is: dose that kills 50% of cells, 2–100 μM, 1 h with compound then 24 h, alamarBlue, read-out: ED50 HepG2.
Where [4] appears, read: dose that kills 50% of cells, 2–100 μM, 1 h with compound then 24 h, alamarBlue, read-out: ED50 HaCaT.

As to `C[C@@H](c1ccccc1)N(CC(N)=O)C(=O)CN(C(=O)CN(CCCCCCN)C(=O)CN(C(=O)CN(C(=O)CN(CCCCCCN)C(=O)CN(C(=O)CN(C(=O)CNCCCCCCN)[C@@H](C)c1ccccc1)[C@@H](C)c1ccccc1)[C@@H](C)c1ccccc1)[C@@H](C)c1ccccc1)[C@@H](C)c1ccccc1` [Peptoid 11, (NahNspeNspe)3] (H-[Gly(N-(CH2)6NH2)][Nspe][Nspe][Gly(N-(CH2)6NH2)][Nspe][Nspe][Gly(N-(CH2)6NH2)][Nspe][Nspe]-NH2), the CC50 at 24 h in series [1] (ED50 HepG2) and in series [2] (ED50 HaCaT) was 100 µM throughout.
With `C[C@@H](c1ccccc1)N(CC(N)=O)C(=O)CN(C(=O)CN(CCCCCCN)C(=O)CN(C(=O)CN(C(=O)CNCCCCCCN)[C@@H](C)c1ccccc1)[C@@H](C)c1ccccc1)[C@@H](C)c1ccccc1` [Peptoid 12, (NahNspeNspe)2], the CC50 at 24 h in series [1] (ED50 HepG2) and in series [2] (ED50 HaCaT) was 100 µM in each case.
In the case of `C[C@@H](c1ccccc1)N(CC(N)=O)C(=O)CN(C(=O)CN(CCCCN)C(=O)CN(C(=O)CN(C(=O)CN(CCCCN)C(=O)CN(C(=O)CN(C(=O)CN(CCCCN)C(=O)CN(C(=O)CN(C(=O)CNCCCCN)[C@@H](C)c1ccccc1)[C@@H](C)c1ccccc1)[C@@H](C)c1ccccc1)[C@@H](C)c1ccccc1)[C@@H](C)c1ccccc1)[C@@H](C)c1ccccc1)[C@@H](C)c1ccccc1` [Peptoid 13, (NLysNspeNspe)4] (H-[Nlys][Nspe][Nspe][Nlys][Nspe][Nspe][Nlys][Nspe][Nspe][Nlys][Nspe][Nspe]-NH2), the CC50 at 24 h in series [1] (setting [3]) turned out to be 29 µM; in series [2] (setting [4]), 20 µM.
The matching figures for `C[C@@H](c1ccccc1)N(CC(N)=O)C(=O)CN(C(=O)CN(CCCCN)C(=O)CN(C(=O)CN(C(=O)CN(CCCCN)C(=O)CN(C(=O)CN(C(=O)CNCCCCN)[C@@H](C)c1ccccc1)[C@@H](C)c1ccccc1)[C@@H](C)c1ccccc1)[C@@H](C)c1ccccc1)[C@@H](C)c1ccccc1` [Peptoid 14, (NLysNspeNspe)3] (H-[Nlys][Nspe][Nspe][Nlys][Nspe][Nspe][Nlys][Nspe][Nspe]-NH2): 100 µM and 100 µM.
For `C[C@@H](c1ccccc1)N(CC(N)=O)C(=O)CN(C(=O)CN(CCCCN)C(=O)CN(C(=O)CN(C(=O)CNCCCCN)[C@@H](C)c1ccccc1)[C@@H](C)c1ccccc1)[C@@H](C)c1ccccc1` [Peptoid 15, (NLysNspeNspe)2] (H-[Nlys][Nspe][Nspe][Nlys][Nspe][Nspe]-NH2), the CC50 at 24 h in series [1] (ED50 HepG2) and in series [2] (ED50 HaCaT) was 100 µM each time.
On to `C[C@@H](c1ccccc1)N(CC(N)=O)C(=O)CN(C(=O)CN(CCN)C(=O)CN(C(=O)CN(C(=O)CN(CCN)C(=O)CN(C(=O)CN(C(=O)CN(CCN)C(=O)CN(C(=O)CN(C(=O)CNCCN)[C@@H](C)c1ccccc1)[C@@H](C)c1ccccc1)[C@@H](C)c1ccccc1)[C@@H](C)c1ccccc1)[C@@H](C)c1ccccc1)[C@@H](C)c1ccccc1)[C@@H](C)c1ccccc1` [Peptoid 16, (NaeNspeNspe)4] (H-[Gly(N-2-aminoethyl)][Nspe][Nspe][Gly(N-2-aminoethyl)][Nspe][Nspe][Gly(N-2-aminoethyl)][Nspe][Nspe][Gly(N-2-aminoethyl)][Nspe][Nspe]-NH2), for which the CC50 at 24 h in series [1] (ED50 HepG2) is 41 µM; in series [2] (ED50 HaCaT), 26 µM.
For the compound `C[C@@H](c1ccccc1)N(CC(N)=O)C(=O)CN(C(=O)CN(CCN)C(=O)CN(C(=O)CN(C(=O)CN(CCN)C(=O)CN(C(=O)CN(C(=O)CNCCN)[C@@H](C)c1ccccc1)[C@@H](C)c1ccccc1)[C@@H](C)c1ccccc1)[C@@H](C)c1ccccc1)[C@@H](C)c1ccccc1` [Peptoid 17, (NaeNspeNspe)3], the CC50 at 24 h in series [1] (setting [3]) and in series [2] (setting [4]) was 100 µM throughout.
`C[C@@H](c1ccccc1)N(CC(N)=O)C(=O)CN(C(=O)CN(CCN)C(=O)CN(C(=O)CN(C(=O)CNCCN)[C@@H](C)c1ccccc1)[C@@H](C)c1ccccc1)[C@@H](C)c1ccccc1` [Peptoid 18, (NaeNspeNspe)2]: the CC50 at 24 h in series [1] (ED50 HepG2) and in series [2] (ED50 HaCaT) was 100 µM each time.
As for `COc1ccc(CN(CC(N)=O)C(=O)CN(Cc2ccc(OC)cc2)C(=O)CN(CCCCN)C(=O)CN(Cc2ccc(OC)cc2)C(=O)CN(Cc2ccc(OC)cc2)C(=O)CN(CCCCN)C(=O)CN(Cc2ccc(OC)cc2)C(=O)CN(Cc2ccc(OC)cc2)C(=O)CN(CCCCN)C(=O)CN(Cc2ccc(OC)cc2)C(=O)CN(Cc2ccc(OC)cc2)C(=O)CNCCCCN)cc1` [Peptoid 19, (NLysNpmbNpmb)4], the figures for the CC50 at 24 h in series [1] (ED50 HepG2) and in series [2] (ED50 HaCaT) were 100 µM and 41 µM, respectively.
Taken in the same sequence, the figures for `NCCCCNCC(=O)N(CC(=O)N(CC(=O)N(CCCCN)CC(=O)N(CC(=O)N(CC(=O)N(CCCCN)CC(=O)N(CC(=O)N(CC(=O)N(CCCCN)CC(=O)N(CC(=O)N(CC(N)=O)Cc1ccc(Cl)cc1)Cc1ccc(Cl)cc1)Cc1ccc(Cl)cc1)Cc1ccc(Cl)cc1)Cc1ccc(Cl)cc1)Cc1ccc(Cl)cc1)Cc1ccc(Cl)cc1)Cc1ccc(Cl)cc1` [Peptoid 20, (NLysNpcbNpcb)4] (H-[Nlys][Gly(Nα-4-Cl-benzyl)][Gly(Nα-4-Cl-benzyl)][Nlys][Gly(Nα-4-Cl-benzyl)][Gly(Nα-4-Cl-benzyl)][Nlys][Gly(Nα-4-Cl-benzyl)][Gly(Nα-4-Cl-benzyl)][Nlys][Gly(Nα-4-Cl-benzyl)][Gly(Nα-4-Cl-benzyl)]-NH2) were 22 µM and 18 µM.
With `NCCCCNCC(=O)N(CC(=O)N(CC(=O)N(CCCCN)CC(=O)N(CC(=O)N(CC(=O)N(CCCCN)CC(=O)N(CC(=O)N(CC(N)=O)Cc1ccc(Cl)cc1)Cc1ccc(Cl)cc1)Cc1ccc(Cl)cc1)Cc1ccc(Cl)cc1)Cc1ccc(Cl)cc1)Cc1ccc(Cl)cc1` [Peptoid 21, (NLysNpcbNpcb)3] (H-[Nlys][Gly(Nα-4-Cl-benzyl)][Gly(Nα-4-Cl-benzyl)][Nlys][Gly(Nα-4-Cl-benzyl)][Gly(Nα-4-Cl-benzyl)][Nlys][Gly(Nα-4-Cl-benzyl)][Gly(Nα-4-Cl-benzyl)]-NH2), the CC50 at 24 h worked out at 23 µM in series [1] (ED50 HepG2) and 22 µM in series [2] (ED50 HaCaT).
The matching figures for `NCCCCNCC(=O)N(CC(=O)N(CC(=O)N(CCCCN)CC(=O)N(CC(=O)N(CC(=O)N(CCCCN)CC(=O)N(CC(=O)N(CC(=O)N(CCCCN)CC(=O)N(CC(=O)N(CC(N)=O)Cc1ccc(F)cc1)Cc1ccc(F)cc1)Cc1ccc(F)cc1)Cc1ccc(F)cc1)Cc1ccc(F)cc1)Cc1ccc(F)cc1)Cc1ccc(F)cc1)Cc1ccc(F)cc1` [Peptoid 22, (NLysNpfbNpfb)4] (H-[Nlys][N(4-F-Bzl)Gly][N(4-F-Bzl)Gly][Nlys][N(4-F-Bzl)Gly][N(4-F-Bzl)Gly][Nlys][N(4-F-Bzl)Gly][N(4-F-Bzl)Gly][Nlys][N(4-F-Bzl)Gly][N(4-F-Bzl)Gly]-NH2): 30 µM and 46 µM.
Consider `NCCCCNCC(=O)N(CC(=O)N(CC(=O)N(CCCCN)CC(=O)N(CC(=O)N(CC(=O)N(CCCCN)CC(=O)N(CC(=O)N(CC(N)=O)Cc1ccc(F)cc1)Cc1ccc(F)cc1)Cc1ccc(F)cc1)Cc1ccc(F)cc1)Cc1ccc(F)cc1)Cc1ccc(F)cc1` [Peptoid 23, (NLysNpfbNpfb)3] (H-[Nlys][N(4-F-Bzl)Gly][N(4-F-Bzl)Gly][Nlys][N(4-F-Bzl)Gly][N(4-F-Bzl)Gly][Nlys][N(4-F-Bzl)Gly][N(4-F-Bzl)Gly]-NH2), for which the figures for the CC50 at 24 h in series [1] (ED50 HepG2) and in series [2] (ED50 HaCaT) were 45 µM and 100 µM, respectively.
